Experimental data reported in paper PMC7170481, “Inhibition of Ammonia Monooxygenase from Ammonia-Oxidizing Archaea by Linear and Aromatic Alkynes” (Applied and Environmental Microbiology, 2020).

Assays:
Assay in all cases: inhibition of NH3-dependent nitrite production by intact cells
Assay type in all cases: cell-based
[1] = test system: T1, pMMO from Methylococcus capsulatus (Bath); conditions: 20 mM NH4+, 20 mM formate as reductant, 10 mM PIPES pH 7, 37°C, 30 min preincubation
T1 construct: gene pmoB; sMMO excluded by naphthalene assay

[2] = biological target: T2, AMO from "Ca. Nitrosotalea sinensis" Nd2 (Nitrosotalea sinensis, UniProt A0A2H1EFS5+A0A2H1EG39+A0A2H1EG64)
T2 construct: gene amoA; native membrane enzyme complex in intact cells (not purified)
T2 sequence (A0A2H1EG64 24-239 limits assumed): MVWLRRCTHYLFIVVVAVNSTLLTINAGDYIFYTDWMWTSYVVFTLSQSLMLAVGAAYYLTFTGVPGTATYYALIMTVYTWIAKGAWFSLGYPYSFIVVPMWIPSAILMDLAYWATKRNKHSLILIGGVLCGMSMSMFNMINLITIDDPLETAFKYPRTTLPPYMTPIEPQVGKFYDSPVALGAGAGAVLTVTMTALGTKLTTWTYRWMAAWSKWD
T2 sequence (A0A2H1EFS5 1-188): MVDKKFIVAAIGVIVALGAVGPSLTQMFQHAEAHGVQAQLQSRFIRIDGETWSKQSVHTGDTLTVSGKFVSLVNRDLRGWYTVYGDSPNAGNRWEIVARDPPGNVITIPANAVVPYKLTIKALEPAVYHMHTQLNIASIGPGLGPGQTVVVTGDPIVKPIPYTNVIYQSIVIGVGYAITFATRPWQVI
T2 sequence (A0A2H1EG39 1-187): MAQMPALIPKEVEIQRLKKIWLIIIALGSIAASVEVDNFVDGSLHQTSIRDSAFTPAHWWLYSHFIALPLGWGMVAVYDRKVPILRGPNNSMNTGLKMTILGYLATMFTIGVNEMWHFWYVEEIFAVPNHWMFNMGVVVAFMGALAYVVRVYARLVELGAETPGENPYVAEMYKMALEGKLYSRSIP
From the text: inhibition of NH3-dependent nitrite production by intact cells on AMO from "Ca.

[3] = biological target: T3, AMO from Nitrosomonas europaea (Nitrosomonas europaea, UniProt Q04507+Q04508+Q82T63)
T3 construct: gene amoA1; native membrane enzyme complex in intact cells (not purified); genome carries duplicate amo operons
T3 sequence (Q04507 2-276): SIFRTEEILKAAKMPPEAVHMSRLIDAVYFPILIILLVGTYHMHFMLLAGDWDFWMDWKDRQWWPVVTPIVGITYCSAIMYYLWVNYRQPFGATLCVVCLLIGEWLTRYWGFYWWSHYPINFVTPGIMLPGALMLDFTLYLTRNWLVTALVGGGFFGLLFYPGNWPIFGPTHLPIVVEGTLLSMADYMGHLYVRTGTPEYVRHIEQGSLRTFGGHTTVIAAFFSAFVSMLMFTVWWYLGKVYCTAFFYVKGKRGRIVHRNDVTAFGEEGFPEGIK
T3 sequence (Q04508 26-420): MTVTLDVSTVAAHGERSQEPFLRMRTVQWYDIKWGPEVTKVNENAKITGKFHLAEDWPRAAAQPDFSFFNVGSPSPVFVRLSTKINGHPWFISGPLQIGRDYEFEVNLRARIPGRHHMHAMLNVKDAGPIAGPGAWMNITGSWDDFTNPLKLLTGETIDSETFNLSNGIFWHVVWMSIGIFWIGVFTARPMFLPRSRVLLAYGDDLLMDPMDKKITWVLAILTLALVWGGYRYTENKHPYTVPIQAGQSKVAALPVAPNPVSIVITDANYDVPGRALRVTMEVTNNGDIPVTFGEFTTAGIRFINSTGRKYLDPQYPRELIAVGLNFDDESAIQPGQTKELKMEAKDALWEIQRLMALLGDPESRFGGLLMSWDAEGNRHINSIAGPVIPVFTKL
T3 sequence (Q82T63 1-271): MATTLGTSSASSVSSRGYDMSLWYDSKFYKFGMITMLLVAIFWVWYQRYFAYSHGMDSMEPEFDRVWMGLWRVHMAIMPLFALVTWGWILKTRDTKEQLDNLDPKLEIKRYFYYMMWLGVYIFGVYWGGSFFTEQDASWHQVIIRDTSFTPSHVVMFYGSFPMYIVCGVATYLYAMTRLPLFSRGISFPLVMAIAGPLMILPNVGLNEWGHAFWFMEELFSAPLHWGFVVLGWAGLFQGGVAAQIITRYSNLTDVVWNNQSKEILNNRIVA

[4] = biological target: T4, AMO from "Ca. Nitrosocosmicus franklandus" C13 (Candidatus Nitrosocosmicus franklandianus, UniProt A0A484I8C2+A0A484I9U7+A0A484IBG0)
T4 construct: gene amoA; native membrane enzyme complex in intact cells (not purified); copper-dependent multimeric
T4 sequence (A0A484I9U7 1-216): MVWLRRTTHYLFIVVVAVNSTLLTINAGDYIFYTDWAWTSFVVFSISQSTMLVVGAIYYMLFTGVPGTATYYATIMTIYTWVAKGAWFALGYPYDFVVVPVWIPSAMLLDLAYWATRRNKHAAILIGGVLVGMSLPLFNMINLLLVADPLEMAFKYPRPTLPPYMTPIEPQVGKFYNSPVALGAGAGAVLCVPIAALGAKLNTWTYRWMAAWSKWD
T4 sequence (A0A484I8C2 1-192): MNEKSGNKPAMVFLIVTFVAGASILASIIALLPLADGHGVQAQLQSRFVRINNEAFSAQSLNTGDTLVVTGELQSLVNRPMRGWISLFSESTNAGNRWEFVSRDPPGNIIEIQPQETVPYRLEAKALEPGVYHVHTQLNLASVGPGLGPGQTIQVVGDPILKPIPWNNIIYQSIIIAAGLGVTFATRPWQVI
T4 sequence (A0A484IBG0 1-187): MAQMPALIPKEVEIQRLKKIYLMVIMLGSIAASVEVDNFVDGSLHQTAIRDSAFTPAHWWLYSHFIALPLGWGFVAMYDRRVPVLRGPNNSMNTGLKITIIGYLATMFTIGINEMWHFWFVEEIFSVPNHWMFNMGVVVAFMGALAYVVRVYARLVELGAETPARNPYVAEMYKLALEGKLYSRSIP
From the text: inhibition of NH3-dependent nitrite production by intact cells on AMO from "Ca. Nitrosocosmicus franklandus" C13 | partial inhibition of NH3 oxidation by “Ca.

[5] = biological target: T3, AMO from Nitrosomonas europaea; conditions: 1 mM NH4+, 50 mM sodium phosphate pH 7.7, 2 mM MgCl2, 30°C, 30 min preincubation

Structure (SMILES)	% inhibition at 10 μM [1]	% inhibition at 10 μM [5]	other results
C#CCCC [C5, 1-pentyne]	> 20%	–	inhibition at 10 µM [2]: 70 ± 1%; inhibition at 10 µM [3]: 98 ± 1%; inhibition at 10 µM [4]: 14 ± 1%
C#CCCCC [C6, 1-hexyne]	~ 10%	AMO activity was completely inhibited by C6 to C8 1-alkynes	–
C#CCCCCC [C7, 1-heptyne]	~ 10%	AMO activity was completely inhibited by C6 to C8 1-alkynes	–
C#CCCCCCC [C8, 1-octyne]	–	AMO activity was completely inhibited by C6 to C8 1-alkynes	–
C#Cc1ccccc1 [PA, phenylacetylene]	–	–	inhibition at 0.5 µM ([3]; read-out: % inhibition at 0.5 μM): 52.5 ± 1.7%; inhibition at 5 µM ([4]; read-out: % inhibition at 5 μM): 55.4 ± 1.4%
